Results from ChEMBL document CHEMBL5352452, “Design, synthesis and pharmacological evaluation of β-carboline derivatives as potential antitumor agent via targeting autophagy” (Eur J Med Chem, 2023).
Calls of active or inactive are those of the source. No cut-off for these calls is given here.

Key:
HCT-116 [1] = assay: Induction of apoptosis in p53 knockout human HCT-116 cells assessed as increase in LC3-II expression upto 4 uM incubated for 24 hrs by Western blot analysis; format: functional, cell-based
HCT-116 [2] = assay: Inhibition of colony formation in human HCT-116 cells at 1 to 4 uM measured after 14 days by crystal violet staining based analysis; format: functional, cell-based; details: dose 1-4 µM, time 14.0 day
HCT-116 [3] = assay: Induction of apoptosis in human HCT-116 cells assessed as early apoptotic cells at 1 uM incubated for 24 hrs in presence of Z-VAD-FMK by annexin V FITC/propidium iodide staining based flow cytometry (reference value: 6.3 %); format: functional
HCT-116 [4] = assay: Induction of autophagy in human HCT-116 cells assessed as increase in LC3-II expression at 3 uM measured upto 36 hrs by Western blot analysis; format: functional, cell-based
HCT-116 [5] = assay: Upregulation of bile acid metabolism pathway in human HCT-116 cells at 2 uM incubated for 24 hrs by RNA sequencing analysis; format: functional, cell-based
HCT-116 [6] = assay: Induction of autophagy in ATG5 knockout human HCT-116 cells assessed as increase in LC3-II expression upto 4 uM measured after 24 hrs by Western blot analysis; format: functional, cell-based
HCT-116 [7] = assay: Induction of autophagy in human HCT-116 cells assessed as increase in p62 expression at 3 uM measured after 48 to 60 hrs by Western blot analysis; format: functional, cell-based; details: time 48-60 hrs
HCT-116 [8] = assay: Induction of autophagy in human HCT-116 cells expressing ATG7-FLAG assessed as increase in LC3-II expression upto 4 uM measured after 24 hrs by Western blot analysis; format: functional, cell-based
HCT-116 [9] = assay: Induction of morphological changes in human HCT-116 cells assessed as appearance of round cells at 2 to 6 uM measured after 24 hrs by microscopic analysis; format: functional, cell-based; details: dose 2-6 µM
[10] = Antiproliferative activity against human BIU-87 cells assessed as inhibition of cell growth measured after 48 hrs by MTT assay; format: functional, cell-based; details: BIU87, 48 h
HCT-116 [11] = assay: Induction of apoptosis in p53 knockout human HCT-116 cells assessed as increase in cleaved caspase 3 expression upto 5 uM incubated for 24 hrs by Western blot analysis; format: functional, cell-based
ECa-109 cell line = assay: Antiproliferative activity against human Eca-109 cells assessed as inhibition of cell growth measured after 48 hrs by MTT assay; format: functional, cell-based; details: ECa-109, 48 h
HCT-116 [12] = assay: Downregulation of Myc-v1 in human HCT-116 cells at 2 uM incubated for 24 hrs by RNA sequencing analysis; format: functional, cell-based
HCT-116 [13] = assay: Antiproliferative activity against human HCT-116 cells assessed as inhibition of cell growth at 1 to 4 uM by CCK-8 assay; format: functional, cell-based; details: dose 1-4 µM, time <= 7.0 day, TDE = time-dependent effect
HCT-116 [14] = assay: Induction of morphological changes in human HCT-116 cells assessed as appearance of wrinkled cells at 2 to 6 uM measured after 24 hrs by microscopic analysis; format: functional, cell-based; details: dose 2-6 µM
HCT-116 [15] = assay: Induction of apoptosis in human HCT-116 cells assessed as necrotic cells at 1 uM incubated for 24 hrs in presence of Z-VAD-FMK by annexin V FITC/propidium iodide staining based flow cytometry (reference value: 2.9 %); format: functional
HCT-116 [16] = assay: Antiproliferative activity against human HCT-116 cells expressing ATG5-FLAG assessed as inhibition of cell growth measured after 24 hrs by CCK-8 assay; format: functional, cell-based; details: HCT-116, 24 h
HCT-116 [17] = assay: Induction of autophagy in human HCT-116 cells expressing ATG5-FLAG assessed as increase in LC3-II expression upto 4 uM measured after 24 hrs by Western blot analysis; format: functional, cell-based
HCT-116 [18] = assay: Antiproliferative activity against ATG5 knockout human HCT-116 cells assessed as inhibition of cell growth measured after 24 hrs by CCK-8 assay; format: functional, cell-based; details: HCT-116, 24 h
BGC-823 = assay: Antiproliferative activity against human BGC-823 cells assessed as inhibition of cell growth measured after 48 hrs by MTT assay; format: functional, cell-based; details: BGC-823, 48 h
HCT-116 [19] = assay: Antiproliferative activity against human HCT-116 cells expressing ATG7-FLAG assessed as inhibition of cell growth measured after 24 hrs by CCK-8 assay; format: functional, cell-based; details: HCT-116, 24 h
HCT-116 [20] = assay: Downregulation of DNA repair gene in human HCT-116 cells at 2 uM incubated for 24 hrs by RNA sequencing analysis; format: functional, cell-based
HCT-116 [21] = assay: Inhibition of colony formation in ATG7 knockout human HCT-116 cells upto 4 uM […] by crystal violet staining based analysis; format: functional, cell-based
HCT-116 [22] = assay: Induction of apoptosis in human HCT-116 cells assessed as late apoptotic cells at 1 uM incubated for 24 hrs in presence of Z-VAD-FMK by annexin V FITC/propidium iodide staining based flow cytometry (reference value: 4.6 %); format: functional
HCT-116 [23] = assay: Inhibition of colony formation in ATG5 knockout human HCT-116 cells upto 4 uM […] by crystal violet staining based analysis; format: functional, cell-based
HCT-116 [24] = assay: Induction of autophagy in human HCT-116 cells assessed as increase in LC3-II expression at 3 uM measured after 48 to 60 hrs by Western blot analysis; format: functional, cell-based; details: time 48-60 hrs
HCT-116 [25] = assay: Antiproliferative activity against ATG7 knockout human HCT-116 cells assessed as inhibition of cell growth measured after 24 hrs by CCK-8 assay; format: functional, cell-based; details: HCT-116, 24 h
HCT-116 [26] = assay: Antiproliferative activity against human HCT-116 cells assessed as inhibition of cell growth measured after 24 hrs by CCK-8 assay; format: functional, cell-based; details: HCT-116, 24 h
HCT-116 [27] = assay: Upregulation of Kras signaling pathway in human HCT-116 cells at 2 uM incubated for 24 hrs by RNA sequencing analysis; format: functional, cell-based
HCT-116 [28] = assay: Induction of apoptosis in ATG5 knockout human HCT-116 cells assessed as increase in caspase 3 expression upto 4 uM incubated for 24 hrs by Western blot analysis; format: functional, cell-based
HCT-116 [29] = assay: Induction of autophagy in human HCT-116 cells expressing assessed as LC3B-EGFP-mCherry at 2 to 4 uM incubated for 24 hrs by DAPI staining based confocal microscopic analysis; format: functional, cell-based; details: dose 2-4 µM
MCF7 = assay: Antiproliferative activity against human MCF7 cells assessed as inhibition of cell growth measured after 48 hrs by MTT assay; format: functional, cell-based; details: MCF7, 48 h
HCT-116 [30] = assay: Induction of apoptosis in human HCT-116 cells assessed as necrotic cells at 1 uM incubated for 24 hrs by annexin V FITC/propidium iodide staining based flow cytometry (reference value: 7.7%); format: functional

- IC50 (HCT-116 [16]): 4.57 µM
- IC50 (HCT-116 [18]): 7.36 µM
- IC50 (BGC-823): 24.8 µM
- IC50 (HCT-116 [19]): 5.09 µM
- IC50 (HCT-116 [25]): 7.89 µM
- IC50 (HCT-116 [26]): 4.97 µM
- IC50 (MCF7): 13.5 µM
Compound: CN1CCN(Cc2cc3c4ccccc4n(CCCc4ccccc4)c3c(CN3CCN(C)CC3)n2)CC1
- Activity (HCT-116 [1]): Active
- inhibition (HCT-116 [2]): Active
- Activity (HCT-116 [3]): 6.7%
- Activity (HCT-116 [4]): Active
- Activity (HCT-116 [5]): Active
- Activity (HCT-116 [6]): inactive
- Activity (HCT-116 [7]): inactive
- Activity (HCT-116 [8]): Active
- Activity (HCT-116 [9]): Active
- IC50 [10]: 4.53 µM
- Activity (HCT-116 [11]): inactive
- IC50 (ECa-109 cell line): 8.62 µM
- Activity (HCT-116 [12]): Active
- Activity (HCT-116 [13]): Tde
- Activity (HCT-116 [14]): Active
- Activity (HCT-116 [15]): 3.6%
- Activity (HCT-116 [17]): Active
- Activity (HCT-116 [20]): Active
- inhibition (HCT-116 [21]): inactive
- Activity (HCT-116 [22]): 4.9%
- inhibition (HCT-116 [23]): inactive
- Activity (HCT-116 [24]): inactive
- Activity (HCT-116 [27]): Active
- Activity (HCT-116 [28]): inactive
- Activity (HCT-116 [29]): Active
- Activity (HCT-116 [30]): 6%
